Our source for the IC50 values is ChEMBL document CHEMBL1139185, “Methyl spongoate, a cytotoxic steroid from the Sanya soft coral Spongodes sp” (Bioorg Med Chem Lett, 2007).

A word on the IC50: it is the midpoint of a concentration-inhibition curve.

Holding throughout (type): functional, cell-based
One test relates to P388. The test can be described thus: Cytotoxicity against mouse P388 cells.
The subject of a further test is A549. The test can be described thus: Cytotoxicity against human A549 cells.
The test system of a further test is HT-29. The test is described as follows: Cytotoxicity against human HT29 cells.
The subject of a further test is Bel-7402. The test can be described thus: Cytotoxicity against human BEL-7402 cells.

≈ marks a conversion by molar mass, not a printed value.

For `COC(=O)[C@H](CCCC(C)C)[C@H]1CC[C@H]2[C@@H]3CC[C@H]4CC(=O)C=C[C@]4(C)[C@H]3CC[C@]12C` [METHYL SPONGOATE], the 50% inhibitory concentration (IC50) worked out at 3.8 µg/mL (≈ 8.86 µM) in the test on P388, 5 µg/mL (≈ 11.7 µM) in the test with A549, 5 µg/mL (≈ 11.7 µM) in the test on HT-29 and 0.14 µg/mL (≈ 0.327 µM) in the test with Bel-7402.
